# Data as given in US20160279199A1, “PHARMACEUTICAL COMPOSITION FOR TREATING A METABOLIC SYNDROME” (Sanofi, priority 2010, published 2016).
# No end group written: not given here.
# Columns and labels:
# db/db mice [1] = assay: Oral glucose tolerance test (OGTT) in treated db/db mice; format: in vivo, mouse; settings: after 21 days s.c. once daily (AVE0010 0.05, FGF-21 0.75, combination 0.75+0.05 mg·kg−1·day−1), fasted, 2 g·kg−1 oral glucose, vs vehicle treated obese control, FIG. 5
# Description: (§1) Female db/db mice (BKS.Cg-m +/+ Leprdb/J, age of 6 weeks) were treated with vehicle (PBS), 0.05 mg·kg^−1·day^−1 AVE0010, 0.75 mg·kg^−1·day^−1 recombinant human FGF-21 (SEQ ID NO: 2) or a combined dose of FGF-21 (SEQ ID NO: 2) and AVE0010 (SEQ ID NO:9), (0.75+0.05 mg·kg^−1·day^−1) subcutaneously once daily. Mice were fed ad libitum. Before the first treatment, after one week and 4 weeks blood glucose and HbA1c were measured under fed conditions. After 21 days of treatment an oral glucose tolerance test (OGTT) was initiated. Fasted mice were orally challenged with 2 g·kg^−1 glucose solution and blood glucose was measured at indicated time points.
# db/db mice [2] = assay: Fed blood glucose during treatment of db/db mice; format: in vivo, mouse; settings: s.c. once daily (AVE0010 0.05, FGF-21 0.75, combination 0.75+0.05 mg·kg−1·day−1), up to 4 weeks, FIG. 6
# Description: as §1
# Type 2 diabetic patients = settings: cited from earlier work; for fasting hyperglycaemia: doses elevating plasma concentrations to approximately 3-4 fold physiological postprandial levels, Type 2 diabetic patients
# [3] = human subjects with Type 2 diabetes
substance,measurement,setting,value
"AVE0010: GLP-1R agonist peptide, amino acid sequence SEQ ID NO: 9 [reference compound]",glucose tolerance (OGTT),db/db mice [1],small improvement in glucose tolerance
same,blood glucose,db/db mice [2],inhibition of blood glucose increase
"GLP-1: gut peptide glucagon-like peptide-1, an incretin hormone (HAEGTFTSDVSSYLEGQAAKEFIAWLVKGR; ends and bridges not checked; UniProt P01275 98-127, looked up)",blood glucose,Type 2 diabetic patients; [3],reduces
same,insulin secretion,Type 2 diabetic patients; [3],stimulates
"GLP-1(7-27): bioactive GLP-1 form as printed in b13 (HAEGTFTSDVSSYLEGQAAKE; Glucagon-like peptide 1; UniProt P01275 98-118, looked up, fragment)",fasting hyperglycaemia,Type 2 diabetic patients,fully normalizes
"GLP-1(7-36 amide): bioactive GLP-1, amino acid sequence SEQ ID NO: 4 (HAEGTFTSDVSSYLEGQAAKEFIAWLVKGR-NH2)",fasting hyperglycaemia,Type 2 diabetic patients,fully normalizes
